Reference: a compilation of properties of binary mixtures (doi:10.1016/j.molliq.2016.06.018)

Assay: xn = mol fraction of the nth substance listed
Conditions: 100 kPa

CCCCCCCCN1CCCC1=O + CCCC[n+]1ccn(C)c1.O=S(=O)([N-]S(=O)(=O)C(F)(F)F)C(F)(F)F
speed of sound [m/s]
Conditions | x1 = 0.1125 | x1 = 0.2205 | x1 = 0.3048 | x1 = 0.3915 | x1 = 0.5011 | x1 = 0.5983 | x1 = 0.7076 | x1 = 0.7976 | x1 = 0.8911 | x1 = 1
298.15 K | 1234.8 | 1244.9 | 1255.2 | 1268.2 | 1288.3 | 1310.3 | 1341 | 1371.6 | 1406.7 | 1450.2
303.15 K | – | 1233.4 | 1243.4 | – | 1275.5 | 1297 | – | 1356.6 | 1390.5 | 1432.6
308.15 K | 1212.7 | 1222.1 | 1231.6 | – | – | 1283.7 | 1312.7 | 1341.5 | 1374.3 | –
313.15 K | 1201.8 | – | 1219.9 | 1231.6 | 1250 | 1270.4 | 1298.7 | 1326.5 | 1358.3 | 1398
318.15 K | 1190.9 | 1199.6 | 1208.3 | 1219.6 | 1237.5 | 1257.3 | 1284.9 | 1311.7 | 1342.4 | 1380.9
323.15 K | 1180.1 | 1188.4 | 1196.8 | 1207.6 | 1224.9 | 1244.2 | 1271.2 | 1297.1 | – | 1364

CCCC[n+]1ccn(C)c1.O=S(=O)([N-]S(=O)(=O)C(F)(F)F)C(F)(F)F + CCCCCCCCN1CCCC1=O
x2 = 0
Conditions | speed of sound [m/s]
298.15 K | 1227.9
303.15 K | 1216.8
308.15 K | 1205.8
313.15 K | 1195
318.15 K | 1184.2
323.15 K | 1173.6
